Columns and labels:
[1] = tested on: Y79; experiment: Cytotoxicity against human Y79 cells assessed as cell viability incubated for 24 hrs under 37 degreeC by PrestoBlue reagent based assay; type: functional; conditions: Y79, 24 h
[2] = tested on: dsDNA; experiment: Binding affinity to dsDNA (unknown origin) assessed as adduct formation by measuring free dsDNA incubated for 48 hrs by ESI-MS analysis; type: nucleic-acid assay; set-up: concentration or dose not given beside the values
[3] = tested on: dsDNA; experiment: Binding affinity to dsDNA (unknown origin) assessed as adduct formation by measuring bound dsDNA incubated for 48 hrs by ESI-MS analysis; type: nucleic-acid assay
[4] = tested on: Y79; experiment: Potency index, ratio of melphalan IC50 to test compound IC50 for cytotoxicity against human Y79 cells assessed as cell viability incubated for 24 hrs under 37 degreeC by PrestoBlue reagent based assay; type: functional
[5] = tested on: Y79; experiment: Potency index, ratio of melphalan IC50 to test compound IC50 for cytotoxicity against human Y79 cells assessed as cell viability preincubated for 1 hr under 42 degreeC and further incubated under 37 degreeC for 23 hrs by PrestoBlue reagent based assay; type: functional; conditions: time 24 hrs
[6] = tested on: RPMI-8226; experiment: Cytotoxicity against human RPMI-8226 cells incubated for 48 hrs by resazurin dye based assay; type: functional, cell-based; conditions: RPMI-8226, 48 h

SMILES | Activity [2] | Activity [3] | other results
N[C@@H](Cc1ccc(N(CCCl)CCCl)cc1)C(=O)OCCC(F)(F)C(F)(F)C(F)(F)C(F)(F)C(F)(F)C(F)(F)C(F)(F)C(F)(F)C(F)(F)C(F)(F)F |  |  | IC50 [1]: > 200 µM
N[C@@H](Cc1ccc(N(CCCl)CCCl)cc1)C(=O)OCCC(F)(F)C(F)(F)C(F)(F)C(F)(F)C(F)(F)C(F)(F)F | 92% |  | 
N[C@@H](Cc1ccc(N(CCCl)CCCl)cc1)C(=O)OCCC(F)(F)C(F)(F)F | 37% | 63% | 
Cl.N[C@@H](Cc1ccc(N(CCCl)CCCl)cc1)C(=O)OCCC(F)(F)F | 26% | 74% | Ratio IC50 [4]: 8; Ratio IC50 [5]: 8
N[C@@H](Cc1ccc(N(CCCl)CCCl)cc1)C(=O)OCCC(F)(F)C(F)(F)C(F)(F)C(F)(F)F | 51% | 49% | 
N[C@@H](Cc1ccc(N(CCCl)CCCl)cc1)C(=O)OCCC(F)(F)C(F)(F)C(F)(F)C(F)(F)C(F)(F)C(F)(F)C(F)(F)C(F)(F)F | 98% |  | 
N[C@@H](Cc1ccc(N(CCCl)CCCl)cc1)C(=O)O | 99% |  | IC50 [6]: 8.9 µM

From ChEMBL document CHEMBL5550197, “New melphalan derivatives for the treatment of retinoblastoma in combination with thermotherapy” (RSC Med Chem, 2024)
